Results reported in patent US10252989B2, “Picolinamides with fungicidal activity” (DOW AGROSCIENCES LLC, priority 2014, dated 2019).
Where two headings read alike, the source gives them in different places.

Tests used:
Zymoseptoria tritici = assay: Fungicidal activity: leaf blotch of wheat (SEPTTR), disease control on wheat seedlings; type: in vivo; conditions: for pest or weed control at 121.5 g/ha: Low-volume cereal activity at 121.5 g/H, wheat leaf blotch
Description: (§1) All fungicides were evaluated using the aforementioned method for their activity vs. all target diseases. Wheat leaf blotch and brown rust activity were also evaluated using track spray applications, in which case the fungicides were formulated as EC formulations, containing 0.1% Trycol 5941 in the spray solutions. Wheat plants (variety Yuma) were grown from seed in a greenhouse in 50% mineral soil/50% soil-less Metro mix until the first leaf was fully emerged, with 7-10 seedlings per pot. These plants were inoculated with an aqueous spore suspension of Zymoseptoria tritici either prior to or after fungicide treatments. After inoculation the plants were kept in 100% relative humidity (one day in a dark dew chamber followed by two to three days in a lighted dew chamber at 20° C.) to permit spores to germinate and infect the leaf. The plants were then transferred to a greenhouse set at 20° C. for disease to develop. When disease symptoms were fully expressed on the 1st leaves of untreated plants, infection levels were assessed on a scale of 0 to 100 percent disease severity. Percent disease control was calculated using the ratio of disease severity on treated plants relative to untreated plants.

Puccinia triticina = assay: Fungicidal activity: wheat brown rust (PUCCRT), disease control on wheat seedlings; type: in vivo; conditions: Low-volume cereal activity at 121.5 g/H
Description: as §1, with “plants. Example B: Evaluation of Fungicidal Activity: Wheat Brown Rust (Puccinia triticina; Synonym: Puccinia recondita f. sp. tritici; Bayer code PUCCRT) Wheat plants (variety Yuma) were grown from seed in a greenhouse in 50% mineral soil/50% soil-less Metro mix until the first leaf was fully emerged, with 7-10 seedlings per pot. These plants were inoculated with an aqueous spore suspension of Puccinia triticina either prior to or after fungicide treatments. […] The plants were then transferred to a greenhouse set at 24° C. for disease to develop. Fungicide formulation, application and disease assessment followed the procedures as described in the Example A.” for “plants.”

[1] = 24 h, 1 Day Protectant, read-out: PUCCRT 1DP disease control rating
[2] = 72 h, 3 Day Curative, read-out: PUCCRT 3DC disease control rating
[3] = 24 h, 1 Day Protectant, read-out: SEPTTR 1DP disease control rating
[4] = 72 h, 3 Day Curative, read-out: SEPTTR 3DC disease control rating

Row | SMILES | pest or weed control at 100 ppm (Zymoseptoria tritici; 72 h, High-volume cereal activity at 100 ppm, 3 Day Curative, wheat seedlings, read-out: SEPTTR 3DC disease control rating) | pest or weed control at 121.5 g/ha (Puccinia triticina; [1]) | pest or weed control at 121.5 g/ha (Puccinia triticina; [2]) | pest or weed control at 121.5 g/ha (Zymoseptoria tritici; [3]) | pest or weed control at 121.5 g/ha (Zymoseptoria tritici; [4])
1 | COc1ccnc(C(=O)N[C@@H](C)C(=O)O[C@@H](C)[C@H](Cc2ccccc2)c2ccccc2)c1O [Compound 119] | 0 to 80% | – | – | – | –
2 | CCCC[C@@H]([C@H](C)OC(=O)[C@H](C)NC(=O)c1nccc(OC)c1OC(C)=O)[C@@H](CC)Oc1ccccc1 [Compound 190] | – | 80 to 100% | 80 to 100% | 80 to 100% | 80 to 100%
3 | CC[C@H](NC(=O)c1nccc(OC)c1OC(C)=O)C(=O)O[C@@H](C)C(Cc1ccc(OC)cc1)Cc1ccc(OC)cc1 [Compound 273] | – | 0 to 80% | 0 to 80% | 80 to 100% | 0 to 80%
